Test results reported in the NIST ThermoML archive (doi:10.1021/je800579j).
± gives the expanded uncertainty stated by the source.

Assay: refractive index (Na D-line) (dimensionless); xn = mol fraction of the nth substance listed
Conditions: Liquid, Standard Abbe refractometry

C1COCCO1 [1,4-dioxane] + Cc1ccccc1
refractive index
Conditions	288.15 K	293.15 K	298.15 K	303.15 K	308.15 K	313.15 K	318.15 K
x1 = 0.0688	1.4955 ± 0.0007	1.4927 ± 0.0007	1.4899 ± 0.0007	1.487 ± 0.0007	1.4841 ± 0.0007	1.4812 ± 0.0007	1.4783 ± 0.0007
x1 = 0.1373	1.4914 ± 0.0007	1.4886 ± 0.0007	1.4858 ± 0.0007	1.4829 ± 0.0007	1.48 ± 0.0007	1.4771 ± 0.0007	1.4742 ± 0.0007
x1 = 0.2112	1.4869 ± 0.0007	1.4842 ± 0.0007	1.4814 ± 0.0007	1.4786 ± 0.0007	1.4757 ± 0.0007	1.4729 ± 0.0007	1.47 ± 0.0007
x1 = 0.2858	1.4822 ± 0.0007	1.4795 ± 0.0007	1.4768 ± 0.0007	1.474 ± 0.0007	1.4712 ± 0.0007	1.4684 ± 0.0007	1.4655 ± 0.0007
x1 = 0.3552	1.4775 ± 0.0007	1.4749 ± 0.0007	1.4722 ± 0.0007	1.4695 ± 0.0007	1.4668 ± 0.0007	1.464 ± 0.0007	1.4613 ± 0.0007
x1 = 0.4361	1.4719 ± 0.0006	1.4693 ± 0.0007	1.4667 ± 0.0007	1.464 ± 0.0007	1.4614 ± 0.0007	1.4587 ± 0.0007	1.456 ± 0.0007
x1 = 0.5064	1.4668 ± 0.0006	1.4643 ± 0.0007	1.4617 ± 0.0007	1.4591 ± 0.0007	1.4565 ± 0.0007	1.4539 ± 0.0007	1.4512 ± 0.0007
x1 = 0.5819	1.4611 ± 0.0006	1.4586 ± 0.0006	1.4561 ± 0.0006	1.4536 ± 0.0007	1.451 ± 0.0007	1.4484 ± 0.0007	1.4458 ± 0.0007
x1 = 0.6506	1.4557 ± 0.0006	1.4533 ± 0.0006	1.4508 ± 0.0006	1.4483 ± 0.0006	1.4458 ± 0.0006	1.4433 ± 0.0006	1.4408 ± 0.0007
x1 = 0.7212	1.4499 ± 0.0006	1.4475 ± 0.0006	1.4451 ± 0.0006	1.4427 ± 0.0006	1.4403 ± 0.0006	1.4378 ± 0.0006	1.4353 ± 0.0007
x1 = 0.7903	1.444 ± 0.0006	1.4417 ± 0.0006	1.4393 ± 0.0006	1.437 ± 0.0006	1.4346 ± 0.0006	1.4322 ± 0.0006	1.4298 ± 0.0006
x1 = 0.864	1.4374 ± 0.0006	1.4352 ± 0.0006	1.4329 ± 0.0006	1.4306 ± 0.0006	1.4283 ± 0.0006	1.426 ± 0.0006	1.4236 ± 0.0006
x1 = 0.9336	1.431 ± 0.0006	1.4288 ± 0.0006	1.4266 ± 0.0006	1.4244 ± 0.0006	1.4222 ± 0.0006	1.4199 ± 0.0006	1.4176 ± 0.0006
x1 = 1	1.4245 ± 0.0006	1.4224 ± 0.0006	1.4203 ± 0.0006	1.4182 ± 0.0006	1.4161 ± 0.0006	1.4139 ± 0.0006	1.4117 ± 0.0006
